Structures can show the parent of a compound that is named as a salt.
Key:
HCV replicon = HCV replicon system in Huh7 cells (real-time RT-PCR of replicon RNA); format: cell-based; conditions: for ΔCt HCV at 100 μM / EC50: Huh7 replicon cells; for ΔCt HCV at 100 μM: ΔCt of 3.3 = 1-log reduction in replicon production; for EC50: calculated from ΔCt values of dilution series
Protocol: The HCV replicon system in Huh7 cells.
Huh7 cells harboring the HCV replicon were cultivated in DMEM medium (high glucose, no pyruvate), supplemented with 10% fetal bovine serum, 1× non-essential amino acids, Pen-Strep-Glu (100 units/liter, 100 microgram/liter, and 2.92 mg/liter, respectively), and G418 (500 to 1000 microgram/milliliter). Antiviral screening assays were also done in the same medium without G418 as follows. To keep the cells in the logarithmic growth phase, cells were seeded in 96-well plates at low density (for example, 1000 cells per well). The test compound was then added immediately after seeding the cells, and they were incubated for 3 to 7 days at 37° C. in an incubator. The medium was then removed, and the cells were prepared for total RNA extraction (replicon RNA+host RNA). Replicon RNA was then amplified in a real-time RT-PCR (Q-RT-PCR) protocol, and quantified.
In such experiments, a way to express the antiviral effectiveness of a compound is to subtract the average threshold RT-PCR cycle of the negative control (Ctnegative) from the threshold RT-PCR cycle of the test compound (Cttestcompound). This value is called ΔCt (ΔCt=Cttestcompound−Ctnegative). A ΔCt value of 3.3 represents a 1-log reduction in replicon production.
The ΔCt values for each concentration allow the calculation of the 50% effective concentration (EC50).
Compounds were tested for inhibition of HCV RNA replication using the above assay.

human cell lines = assay: Toxicity in several human cell lines; format: cell-based
[1] = Toxicity in Swiss outbred mice, IP for 6 consecutive days; format: in vivo; conditions: up to 100 mg/kg
[2] = Oral and IV administration to rhesus monkeys; format: in vivo; conditions: 20 mg/kg
HCV [3] = assay: 14-day oral treatment of chronically HCV-infected chimpanzees, serum HCV viral load by real-time RT-PCR; format: in vivo
Protocol: Based on those toxicity data, a 14-day treatment (oral, QD at 5 mg/kg/day) of chronically HCV-infected chimpanzees was conducted. Viral RNA was extracted from the chronically infected chimpanzees serum samples in quadruplicate and the viral RNA pellets were dissolved in RNAse-free water. Subsequently, these RNA samples were amplified by real-time RT-PCR (Applied Biosystems, Foster City, Calif.) for the presence and quantity of the HCV nucleic acids. Primers and probes for HCV were designed using Primer Express (Applied Biosystems). Further details on the methodology will be published (Stuyver et al., 2002; manuscript submitted to Antimicrob. Agents Chemother.).
The results are expressed relative to the viral load in the pretreatment sample. Calculation of the viral load for each sample was based on 4 independent measurements of threshold RT-PCR cycles (Ct values). Mean±SD were calculated for each day's sample. The latter were used to express the observed viral load changes.
Two chimpanzees [Joseph (5.14 log10 IU/ml HCV) and Heppie (5.69 log10 IU/ml HCV)] were treated orally for 14 days with 5 mg/kg/day. The viral load changes that were observed are summarized below (FIG. 1): • 1. […] The viral load remained suppressed with a mean of 0.43 log10 IU/ml up to day 14.

[4] = Hematology and blood chemistry in treated chimpanzees; format: in vivo
Protocol: Hematology and blood chemistry report. The day 0 and day 14 samples were analyzed for hematological and blood chemistry parameters. Essentially, no changes in the baseline and after treatment samples were observed.

HCV [5] = conditions: ribavirin alone; cited from earlier work

Row | Compound | ΔCt HCV at 100 μM (HCV replicon) | EC50 (HCV replicon; Hepatitis C virus, Huh-7) [µM] | further results
1 | O=c1ccc2nnn3c2n1[C@@H]1O[C@H](C3)C(O)C1O (stereo partly drawn) [15 (Y = H, Z = CH), 9,5′-Cyclo-3-(β-D-ribofuranosyl)-1-deaza-8-azapurine-2-one] | 4.48 | 20 | in vitro antiviral activity against HCV (HCV replicon; in words): demonstrated in vitro antiviral activity against HCV; toxicity in several human cell lines (human cell lines): practically no toxicity; toxicity [1]: no toxicity was apparent; death or significant weight loss ([1]; 28 day monitoring): None of the mice died or lost significant weight; untoward effects ([2]; IV administration): Neither oral administration nor IV administration to rhesus monkeys at 20 mg/kg caused any untoward effects; untoward effects ([2]; oral administration): Neither oral administration nor IV administration to rhesus monkeys at 20 mg/kg caused any untoward effects; reduction in viral load (HCV [3]; day 4, 5 mg/kg/day QD, in words): significant reduction; maximal drop in HCV viral load (HCV [3]; day 4, chimpanzee Heppie, oral 5 mg/kg/day QD): 0.8 log10 IU/ml; maximal drop in HCV viral load (HCV [3]; day 4, chimpanzee Joseph, oral 5 mg/kg/day QD): 0.5 log10 IU/ml; maximal drop in HCV viral load, mean for both animals (HCV [3]; day 4, mean of both chimpanzees, oral 5 mg/kg/day QD): 0.67 log10 IU/ml; viral load changes (HCV [3]; up to 24 hr after administration of the first dose, oral 5 mg/kg/day): No viral load changes were observed; viral load suppression, mean (HCV [3]; up to day 14, oral 5 mg/kg/day QD): 0.43 log10 IU/ml; changes in hematological and blood chemistry parameters ([4]; day 0 versus day 14; oral 5 mg/kg/day; Z=CH), 5 mg/kg/day): No change; hematological and blood chemistry parameters relative to normal range ([4]; throughout the study): remained in the normal range
2 | O=c1ncc2nnn3c2n1[C@@H]1O[C@H](C3)C(O)C1O (stereo partly shown) [15 (Y = H, Z = N)] | 3.6 | < 10 | –
3 | O=c1[nH]c(=O)n2c3c1nnn3CC1OC2C(O)C1O [15 (Y = OH, Z = N), 9,5′Cyclo-3-(β-D-ribofuranosyl)-8-azaxanthine] | 6.3 | – | EC50 (HCV replicon): < 10 µM
4 | O=c1[nH]c(=S)c2nnn3c2n1[C@@H]1O[C@H](C3)C(O)C1O (stereo partly shown) [15 (Y = SH, Z = N)] | 3.61 | < 6 | –
5 | O=c1c(Br)cc2nnn3c2n1[C@@H]1O[C@H](C3)C(O)C1O (stereo partly drawn) [71 (X = Br), 3,5′-Cyclo-6-bromo-4-(β-D-ribofuranosyl)-vic-triazolo[4,5-b]pyridin-5-one] | 5.9 | < 1 | –
6 | O=c1c(Cl)cc2nnn3c2n1[C@@H]1O[C@H](C3)C(O)C1O (stereo partly drawn) [71 (X = Cl), 3,5% Cyclo-6-chloro-4-(β-D-ribofuranosyl)-vic-triazolo[4,5-b]pyridin-5-one] | 6.0 | < 0.7 | –
7 | CNc1nc(=O)n2c3c1nnn3C[C@H]1O[C@@H]2C(O)C1O (stereo partly drawn) [72 (R = H, R′ = Me), 3,5′-Cyclo-7-methylamino-4-(β-D-ribofuranosyl)-vic-triazolo[4,5-b]pyridin-5-one] | 6.6 | < 1 | –
8 | Nc1cc(=O)n2c3c1nnn3C[C@H]1O[C@@H]2C(O)C1O (stereo partly drawn) [72 (R = R′ = H), 7-Amino-3,5′-cyclo-4-(β-D-ribofuranosyl)-vic-triazolo[4,5-b]pyridin-5-one] | 5.7 | 4.5 | –
9 | CC1(C)OC2C(O1)[C@H]1Cn3nnc4c(=S)[nH]c(=O)n(c43)[C@@H]2O1 (stereo partly shown) [73 (Y = SH)] | 4.1 | 25 | –
10 | C/N=c1/[nH]c(=O)n2c3c1nnn3C[C@H]1O[C@@H]2C(O)C1O (stereo partly drawn) [75 (R = Me, R′ = H), 9,5′-Cyclo-3-(β-D-ribofuranosyl)-6-methylamino-8-azaxanthine] | 6.4 | < 6 | –
11 | CO/N=c1/[nH]c(=O)n2c3c1nnn3C[C@H]1O[C@@H]2C(O)C1O (stereo partly drawn) [75 (R = OMe, R′ = H), 9,5′-Cyclo-3-(β-D-ribofuranosyl)-6-methoxylamino-8-azaxanthine] | 6.5 | < 5 | –
12 | Nc1nc(=O)n2c3c1nnn3C[C@H]1O[C@@H]2C(O)C1O (stereo partly drawn) [75 (R = R′ = H), 9,5′-Cyclo-3-(β-D-ribofuranosyl)-6-amino-8-azapurine-2-one hydrochloride] | 5.3 | 0.7 | –
13 | CN(C)c1nc(=O)n2c3c1nnn3C[C@H]1O[C@@H]2C(O)C1O (stereo partly drawn) [75 (R = R′ = Me), 9,5′-Cyclo-3-(β-D-ribofuranosyl)-6-dimethylamino-8-azaxanthine] | 2.4 | – | –
14 | N#CCn1c(=O)c2nnn3c2n(c1=O)[C@@H]1O[C@H](C3)C(O)C1O (stereo partly drawn) [77 (R = CH2CN), 1-Cyanomethyl-9,5′-cyclo-3-(β-D-ribofuranosyl)-8-azaxanthine] | 4.7 | < 6 | –
15 | Cn1c(=O)c2nnn3c2n(c1=O)[C@@H]1O[C@H](C3)C(O)C1O (stereo partly drawn) [77 (R = CH3), 9,5′-Cyclo-1-methyl-3-(β-D-ribofuranosyl)-8-azaxanthine] | 5.9 | 0.4 | –
16 | O=c1ccc2nnn3c2n1[C@@H]1O[C@H](C3)C2OC(=S)OC21 (stereo partly shown) [82 (Y = H, Z = CH)] | 2.6 | – | –
17 | O=c1[nH]c(=O)n2c3c1nnn3C[C@H]1O[C@@H]2C2OC(=S)OC21 (stereo partly drawn) [82 (Y = OH, Z = N), 9,5′-Cyclo-3-(2′,3′O-thiocarbonyl-β-D-ribofuranosyl)-8-azaxanthine] | 4.7 | 12 | –
18 | O=c1ccc2nnn3c2n1[C@H]1CC(O)[C@@H](C3)O1 (stereo partly shown) [83 (Y = H, Z = CH)] | 5.1 | < 6 | –
19 | O=c1[nH]c(=O)n2c3c1nnn3C[C@H]1O[C@@H]2C(O)C1O (stereo partly drawn) [83 (Y = OH, Z = N), 9,5% Cyclo-3-(2′-deoxy-β-D-erythropentofuranosyl)-8-azaxanthine] | 2.1 | 60 | –
20 | Cl.Nc1nc(=O)n2c3c1ncn3C[C@H]1O[C@@H]2C(O)C1O (stereo partly drawn) [Compound 27, 6-Amino-5′,9-cyclo-3-(β-D-ribofuranosyl)-2-oxo-purine HCl salt] | 6.6 | < 3 | –
21 | O=c1[nH]c(=O)n2c3c1ncn3C[C@H]1O[C@@H]2C(O)C1O (stereo partly drawn) [Compound 35, 5′,9-Cyclo-3-(β-D-ribofuranosyl)xanthine] | 6.0 | 4 | –
22 | O=c1[nH]c(=O)n2c3c1nnn3C[C@H]1O[C@@H]2C(O)C1O (stereo partly shown) [Compound 65, 9,5′-Cyclo-carba-8-azaxanthosine] | 2.4 | – | –
23 | OC1C(O)[C@H]2Cn3nnc4ccc(=S)n(c43)[C@@H]1O2 (stereo partly drawn) [Compound 70, 3,5% Cyclo-4-(β-D-ribofuranosyl)-vic-triazolo[4,5-b]pyridin-5-thione] | 7.0 | 1 | –
24 | NC(=O)c1ncn([C@@H]2O[C@H](CO)[C@@H](O)[C@H]2O)n1 [Ribavirin, 1-β-D-ribofuranosyl-1H-1,2,4-triazole-3-carboxamide] | – | – | patients in whom serum amino transferase levels are reduced to normal (HCV [5]): 40%

From patent US8093380B2, “Compounds with the bicyclo[4.2.1]nonane system for the treatment of Flaviviridae infections” (Pharmasset, Inc., priority 2002, dated 2012)
